Source: patent US11266655B2, “Methods and compositions for treating urea cycle disorders” (Camp4 Therapeutics Corporation, priority 2019, dated 2022)
Several values for one entry are separate records, joined by “and”; a condition that tells them apart may be missing. Equal entries are not always repeated. Where two headings read alike, the source gives them in different places.

Tests used:
ASS1 = experiment: RNA-seq of compound-treated primary human hepatocytes, ASS1 expression; format: cell-based
CPS1 [1] = experiment: RNA-seq of compound-treated primary human hepatocytes, CPS1 expression; format: cell-based; settings: primary human hepatocytes; for Relative CPS1 level vs Untreated (±Standard Deviation): 1 μM, triplicate (Table 19, FIG. 11); for CPS1 expression, Fold change (Log 2) vs untreated: RNA-seq
SLC25A15 = experiment: RNA-seq of compound-treated primary human hepatocytes, SLC25A15 expression; format: cell-based
NAGS = format: cell-based, human
ARG1 = experiment: RNA-seq of compound-treated primary human hepatocytes, ARG1 expression; format: cell-based; settings: primary human hepatocytes; for Relative ARGI level vs Untreated (±Standard Deviation): triplicate (Table 17, FIG. 9)
SLC25A13 = experiment: RNA-seq of compound-treated primary human hepatocytes, SLC25A13 expression; format: cell-based; settings: for Relative SLC25A13 level vs Untreated (±Standard Deviation): primary human hepatocytes, triplicate (Table 23, FIG. 15)
CPS1 [2] = experiment: HSP90 or HSP70 inhibitors in primary human hepatocytes, CPS1 mRNA; format: cell-based; settings: hepatocytes from Donor B, normalized to B2M
Method: (§1) Additional small molecules that inhibit HSP90 or HSP70 were tested in primary human hepatocytes as described in Example 2. HSP90 or HSP70 inhibitors were tested in triplicate at 0.3 μM and 3 μM. The results are shown as the fold change (mRNA FC) in the mRNA levels of OTC and CPS1 genes after treatment compared to an untreated control (DMSO) and the standard deviation (SD). In addition, a dose titration experiment was performed with selected HSP90 inhibitors. Hepatocytes were incubated with increasing concentrations of HSP90 inhibitors and the changes in OTC and CPS1 expression quantified as previously described.
(§2) HSP90 and HSP70 inhibitors were compared to confirm the role of HSP90 in modulating OTC and CPS1 expression. Hepatocytes from Donor B were incubated with various HSP90 inhibitors or an HSP70 inhibitor, Pifithrin-μ, and then harvested for mRNA quantification. OTC and CPS1 mRNA levels were normalized to B2M.

OTC [3] = experiment: HSP90 or HSP70 inhibitors in primary human hepatocytes, OTC mRNA; format: cell-based; settings: hepatocytes from Donor B, normalized to B2M
Method: as §1, §2

urea cycle genes = experiment: RNA-seq of primary human hepatocytes, compounds that modulate multiple urea cycle-related genes; format: cell-based; settings: primary human hepatocytes, RNA-seq; for Up-regulated Genes: urea cycle-related genes significantly increased (Table 10)
OTC [4] = experiment: RNA-seq of compound-treated primary human hepatocytes, OTC expression; format: cell-based; settings: primary human hepatocytes, RNA-seq
[5] = 10 μM, primary human hepatocytes, triplicate (Table 15, FIG. 7)

Molecule	Relative ASS1 level vs Untreated (±Standard Deviation) (ASS1; [5])	Relative CPS1 level vs Untreated (±Standard Deviation) (CPS1 [1])	Relative SLC25A15 level vs Untreated (±Standard Deviation) (SLC25A15)	Relative NAGS level vs Untreated (±Standard Deviation) (NAGS)	Relative ARGI level vs Untreated (±Standard Deviation) (ARG1; 3 μM)	Relative SLC25A13 level vs Untreated (±Standard Deviation) (SLC25A13; 3 μM)	Relative SLC25A13 level vs Untreated (±Standard Deviation) (SLC25A13; 10 μM)	number of urea cycle genes whose expression was significantly up-regulated (urea cycle genes)	Up-regulated Genes (urea cycle genes)	OTC expression, Fold change (Log 2) vs untreated (OTC [4]) [Log 2]	CPS1 expression, Fold change (Log 2) vs untreated (CPS1 [1]) [Log 2]	further results
CCNC(=O)Nc1ccc(-c2nc(N3CCOC[C@@H]3C)c3c(n2)C(C)(C)S(=O)(=O)C3)cc1 [CZ415]	1.65 ± 0.11	1.32 ± 0.04	1.61 ± 0.19 and 1.52 ± 0.17	2.00 ± 0.27	1.35 ± 0.12	1.61 ± 0.19	1.52 ± 0.17	–	–	–	–	increase in NAGS gene expression (Tables 21, 22, FIG. 13, 14) (NAGS): greatest increase
CO[C@H]1/C=C\C=C(/C)C(=O)NC2=CC(=O)C(NCCN(C)C)=C(C[C@@H](C)C[C@H](OC)[C@H](O)[C@@H](C)/C=C(\C)[C@@H]1OC(N)=O)C2=O [Alvespimycin]	–	–	–	–	–	–	–	–	–	–	–	CPS1 Expression mRNA FC (CPS1 [2]; 0.3 uM): 2.33; CPS1 Expression mRNA FC (CPS1 [2]; 3 uM): 1.94; OTC Expression mRNA FC (OTC [3]; 0.3 uM): 3.03; OTC Expression mRNA FC (OTC [3]; 3 uM): 1.57
O=C1CCc2c(Oc3ccc4c(c3)[C@@H]3[C@H](O4)[C@H]3c3nc4ccc(C(F)(F)F)cc4[nH]3)ccnc2N1 [Lifirafenib (BGB-283), Lifirafenib]	–	–	1.92 ± 0.11 and 2.00 ± 0.13	1.35 ± 0.35 and 1.44 ± 0.15	–	–	1.92 ± 0.11	–	–	–	–	Relative ASS1 level vs Untreated (±Standard Deviation) (ASS1): 1.55 ± 0.28; increase in SLC25A13 gene expression (Table 23, FIG. 15) (SLC25A13; Example 11, relative mRNA vs DMSO): greatest increase
TNF-α	–	–	–	–	–	–	–	four	CPS1, ASS1, OTC, ARG1	0.87	2.31	Fold change (Log 2) vs untreated, ASS1 expression (ASS1; primary human hepatocytes, RNA-seq (Table 4)): 0.58 Log 2
COc1ccc(-c2ccc3c(N4CCOC[C@@H]4C)nc(N4CCOC[C@@H]4C)nc3n2)cc1CO [AZD-8055]	1.66 ± 0.11	1.42 ± 0.24	–	–	1.36 ± 0.07	1.35 ± 0.06	1.64 ± 0.09	–	–	–	–	Relative SLC25A15 level vs Untreated (±Standard Deviation) (SLC25A15; 3 μM, primary human hepatocytes, triplicate (Table 24, FIG. 16A-B)): 1.3 ± 0.06; Relative SLC25A15 level vs Untreated (±Standard Deviation) (SLC25A15; 10 μM, primary human hepatocytes, triplicate (Table 24, FIG. 16A-B)): 1.64 ± 0.09; Relative NAGS level vs Untreated (±Standard Deviation) (NAGS; 10 μM, primary human hepatocytes, triplicate (Table 21, FIG. 13)): 1.43 ± 0.01; Relative ARGI level vs Untreated (±Standard Deviation) (ARG1; 0.3 μM): 1.44 ± 0.09; Relative ARGI level vs Untreated (±Standard Deviation) (ARG1; 1 μM): 1.43 ± 0.25
HGF/SF: Hepatocyte Growth Factor, also known as scatter factor (SF)	–	–	–	–	–	–	–	four	NAGS, CPS1, OTC, ARG1	0.56	2.02	Fold change (Log 2) vs untreated, NAGS expression (NAGS): 0.56 Log 2; Fold change (Log 2) vs untreated, ARG1 expression (ARG1; RNA-seq (Table 7)): 1.51 Log 2
